In patent publication US20050234066A1, “Alpha substituted carboxylic acids” (Agouron Pharmaceuticals, Inc., priority 2004, published 2005):
“And” between values parts separate entries of the source, which are not always exact repeats. Equal values may be shown once.

Experiments:
PPAR-γ = molecular target: T1, PPAR-γ (Homo sapiens, UniProt P37231); assay: Scintillation Proximity Assay (SPA), displacement of 3H labeled darglitazone; assay type: binding; settings: 3H darglitazone displacement, read-out: PPAR-gamma Ki
T1 sequence (P37231 1-505): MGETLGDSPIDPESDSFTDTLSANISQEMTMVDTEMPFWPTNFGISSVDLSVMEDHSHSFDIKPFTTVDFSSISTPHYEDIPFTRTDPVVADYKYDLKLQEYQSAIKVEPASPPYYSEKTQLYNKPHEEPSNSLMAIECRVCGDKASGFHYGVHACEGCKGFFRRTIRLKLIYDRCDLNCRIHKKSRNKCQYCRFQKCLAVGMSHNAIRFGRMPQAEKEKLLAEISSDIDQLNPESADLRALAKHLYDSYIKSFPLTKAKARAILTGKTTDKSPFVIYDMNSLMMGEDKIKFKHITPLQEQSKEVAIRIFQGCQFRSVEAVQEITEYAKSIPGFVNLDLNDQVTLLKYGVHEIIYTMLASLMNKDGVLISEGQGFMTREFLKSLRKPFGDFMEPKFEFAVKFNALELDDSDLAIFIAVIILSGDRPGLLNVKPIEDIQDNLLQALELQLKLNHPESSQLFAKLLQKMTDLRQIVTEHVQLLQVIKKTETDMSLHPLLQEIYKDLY
Excerpt: (§1) Scintillatian Proximity Assay (SPA) Assays
(§2) In the SPA assay, 3H labeled darglitazone (for PPAR-γ) or GW2331 (for PPAR-α) is bound to the PPAR protein captured on SPA polylysine beads and generates radioactive count signal that can be detected by TopCounts (Packard). The PPAR-bound 3H labeled ligand can be displaced by an unlabeled compound. The Ki of the compound can be then determined by the extent of displacement at various compound concentrations. Reagents: • SPA polylysine beads, which can be purchased from Amersham Bioscience. • H labeled Darglitazone for PPAR-γ. • H labeled GW2331 for PPAR-α. • PPAR proteins. • Buffer—PBS, 10% glycerol, 14 mM beta-mercaptoethanol.

PPAR-α = molecular target: T2, PPAR-α (Homo sapiens, UniProt Q07869); assay: Scintillation Proximity Assay (SPA), displacement of 3H labeled GW2331; assay type: binding; settings: 3H GW2331 displacement, read-out: PPAR-alpha Ki
T2 sequence (Q07869 1-468): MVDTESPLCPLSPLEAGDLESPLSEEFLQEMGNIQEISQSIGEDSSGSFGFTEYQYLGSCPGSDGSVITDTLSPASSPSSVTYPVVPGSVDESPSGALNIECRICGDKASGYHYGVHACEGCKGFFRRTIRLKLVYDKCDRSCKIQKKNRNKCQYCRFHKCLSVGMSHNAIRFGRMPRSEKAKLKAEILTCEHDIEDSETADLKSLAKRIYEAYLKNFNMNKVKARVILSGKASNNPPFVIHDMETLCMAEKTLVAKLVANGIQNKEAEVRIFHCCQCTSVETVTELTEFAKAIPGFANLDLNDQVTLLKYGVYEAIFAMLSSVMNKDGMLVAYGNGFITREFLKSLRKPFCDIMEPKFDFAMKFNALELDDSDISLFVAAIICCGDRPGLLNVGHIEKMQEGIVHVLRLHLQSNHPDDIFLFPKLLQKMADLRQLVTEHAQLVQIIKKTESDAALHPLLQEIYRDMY
Excerpt: as §1, §2

Row | Ki (PPAR-γ) | Ki (PPAR-α) | Compound
1 | 51 nM | 350 nM | Cc1oc(-c2ccccc2)nc1CCCOc1cccc(-c2cccc(OC3(C(=O)O)CCC3)c2)c1 [Example A-12]
2 | 33 nM | 110 nM | Cc1oc(-c2cccc(C(F)(F)F)c2)nc1CCOc1ccc(CC2(C(=O)O)CCC2)cc1 [Example C-30]
3 | 7900 nM | 960 nM | CCC(Oc1cccc(CNC(=O)OCc2ccc(OCc3ccccc3)cn2)c1)C(=O)O (stereo not drawn) [Example B-11]
4 | 1700 nM | 14000 nM | Cc1nn(-c2ccccc2)nc1COc1cccc(-c2cccc(OC3(C(=O)O)CCC3)c2)c1 [Example A-18]
5 | 17 nM | 320 nM | COc1ccc(-c2nc(CCOc3ccc(CC(OC)C(=O)O)cn3)c(C)o2)cc1 [Example D-07]
6 | 460 nM | 290 nM | COC(Cc1ccc(OCCc2nc(-c3ccc(C#N)cc3)oc2C)nc1)C(=O)O [Example D-02]
7 | 2000 nM | 25000 nM | CS(=O)(=O)c1ccc(-c2ccc(CCOc3ccc(CC4(C(=O)O)CCC4)cc3)cc2)cc1 [Example C-11]
8 | 700 nM | 1000 nM | COC(C)(Cc1ccc(OCCc2nc(-c3cccc(F)c3)oc2C)nc1)C(=O)O [Example D-42]
9 | 2300 nM | 7300 nM | Cc1oc(-c2ccccc2)nc1CCOc1ncc(CC2(C(=O)O)CCCO2)cn1 (stereo not drawn) [Example C-76]
10 | 93 nM | 640 nM | COc1ccc(-c2nc(CCOc3ccc(CC4(C(=O)O)CCCO4)nc3)c(C)o2)cc1 (stereo not drawn) [Example C-53]
11 | 580 nM | 120 nM | Cc1oc(-c2cccc(F)c2)nc1COc1cccc(-c2cccc(OC3(C(=O)O)CCC3)c2)c1 [Example A-11]
12 | 170 nM | 850 nM | Cc1oc(-c2cc(F)cc(F)c2)nc1CCOc1cccc(-c2cccc(OC(C)(C)C(=O)O)c2)c1 [Example A-22]
13 | 310 nM | 240 nM | Cc1oc(-c2ccc(C#N)cc2)nc1CCOc1ccc(CC2(C(=O)O)CCCO2)cn1 (stereo not drawn) [Example C-61]
14 | 400 nM | 800 nM | COC(C)(Cc1ccc(OCCc2nc(-c3ccccc3)oc2C)cn1)C(=O)O [Example D-29]
15 | 990 nM | 4000 nM | Cc1oc(-c2ccccc2)nc1CCNC(=O)OCc1cccc(OC(C)(C)C(=O)O)c1 [Example B-21]
16 | 1100 nM | 2800 nM | Cc1oc(-c2ccccc2)nc1CCCOc1ccc2cc(CC3(C(=O)O)CCCO3)ccc2c1 (stereo not drawn) [Example C-92]
17 | 1500 nM | 2600 nM | CCOC(Cc1ccc(OCCc2ccc(Oc3ccccc3)cc2)nc1)C(=O)O [Example D-14]
18 | 1100 nM | 2500 nM | CN(CCOc1ccc(CC2(C(=O)O)CCCO2)cn1)c1nc2ccccc2o1 (stereo not drawn) [Example C-69]
19 | 3700 nM | 700 nM | Cc1oc(-c2ccccc2)nc1CCOc1ccc(OC2(C(=O)O)CCC2)cc1 [Example C-40]

Row | Ki (PPAR-γ) | Ki (PPAR-α) | Compound
20 | 1330 nM and 2900 nM and 2000 nM | 2040 nM and 3200 nM and 3600 nM | Cc1oc(-c2ccccc2)nc1CCOC(=O)NCc1cccc(OC(C)(C)C(=O)O)c1 [Example B-05]
21 | 6 nM | 15 nM | Cc1oc(-c2ccccc2)nc1CCOc1ccc(CC2(C(=O)O)CCCO2)cc1 (stereo not drawn) [Example C-78]
22 | 4 nM | 13 nM | COc1cccc(-c2nc(CCOc3ccc(CC4(C(=O)O)CCCO4)cc3)c(C)o2)c1 (stereo not drawn) [Example C-85]
23 | 7 nM | 15 nM | Cc1oc(-c2cccc(N(C)C)c2)nc1CCOc1ccc(CC2(C(=O)O)CCCO2)cc1 (stereo not drawn) [Example C-79]
24 | 33000 nM | 13000 nM | Cc1oc(-c2ccccc2)nc1COc1ccc(OC2(C(=O)O)CCC2)cc1 [Example C-42]
25 | 1900 nM | 2200 nM | Cc1oc(-c2ccccc2)nc1CCOC(=O)NCc1ccc(OC(C)(C)C(=O)O)cc1F [Example B-09]
26 | 8000 nM | 3200 nM | Cc1oc(-c2ccccc2)nc1C/C=C/c1ccc(OC2(C(=O)O)CCC2)cc1 [Example C-14]
27 | 2000 nM | 3500 nM | Cc1oc(-c2ccccc2)nc1CCOc1ccc(CC2(C(=O)O)CCCC2)cn1 [Example C-46]
28 | 1600 nM | 4800 nM | COC(C)(Cc1ccc(OCCCc2nc(-c3ccccc3)oc2C)cn1)C(=O)O [Example D-28]
29 | 2 nM | 15 nM | COc1cccc(-c2nc(CCOc3ccc(CC(OC)C(=O)O)cn3)c(C)o2)c1 [Example D-08]
30 | 780 nM | 18 nM | Cc1oc(-c2ccccc2)nc1COc1cccc(-c2cccc(OC(C)(C)C(=O)O)c2)c1 [Example A-24]
31 | 480 nM | 3100 nM | Cc1oc(-c2ccccc2)nc1COC(=O)NCc1ccc(OC(C)(C)C(=O)O)cc1 [Example B-08]
32 | 26 nM | 93 nM | Cc1oc(-c2cccc(Cl)c2)nc1CCOc1ccc(CC2(C(=O)O)CCC2)cc1 [Example C-31]
33 | 31000 nM | 9000 nM | CC(C)(Oc1cccc(CNC(=O)OCCc2cccc(C(F)(F)F)c2)c1)C(=O)O [Example B-03]
34 | 12 nM | 25 nM | Cc1oc(-c2cccc(C(F)(F)F)c2)nc1CCOc1ccc(CC2(C(=O)O)CCCO2)cc1 (stereo not drawn) [Example C-87]
35 | 800 nM | 2100 nM | Cc1oc(-c2ccccc2C#N)nc1CCOc1ccc(CC2(C(=O)O)CCC2)cc1 [Example C-22]
36 | 970 nM | 8600 nM | Cc1oc(-c2ccccc2)nc1CCOc1ccc(CC2(c3nnn[nH]3)CCCO2)cn1 (stereo not drawn) [Example C-95, 2-[2-(5-Methyl-2-phenyl-oxazol-4-yl)-ethoxy]-5-[2-(1H-tetrazol-5-yl)-tetrahydro-furan-2-ylmethyl]-pyridine]
37 | 68 nM | 16 nM | Cc1ccc(-c2nc(CCOc3ccc(CC4(C(=O)O)CCC4)cc3)c(C)o2)cc1 [Example C-26]
38 | 640 nM | 900 nM | Cc1oc(-c2ccccc2)nc1CCCc1ccc(CC2(C(=O)O)CCCO2)cn1 (stereo not drawn) [Example C-74]

Row | Ki (PPAR-γ) | Ki (PPAR-α) | Compound
39 | 59 nM | 700 nM | Cn1nc(-c2ccccc2)nc1COc1cccc(-c2cccc(OC3(C(=O)O)CCC3)c2)c1 [Example A-19]
40 | 350 nM | 220 nM | CCOC(Cc1ccc(OCCc2nc(-c3ccc(Cl)cc3)oc2C)nc1)C(=O)O [Example D-15]
41 | 1000 nM | 88 nM | COC(C)(Cc1ccc(OCCc2nc(-c3ccc(C(F)(F)F)cc3)oc2C)nc1)C(=O)O [Example D-31]
42 | 9100 nM | 3200 nM | COC(C)(Cc1ccc(OCCN(C)c2nc3ccccc3o2)nc1)C(=O)O [Example D-34]
43 | 14000 nM | 3200 nM | Cc1oc(-c2ccccc2)nc1CCCc1ccc(OC2(C(=O)O)CCC2)cc1 [Example C-15]
44 | 300 nM | 150 nM | Cc1oc(-c2ccc(Cl)cc2)nc1CCOc1ccc(CC2(C(=O)O)CCCO2)nc1 (stereo not drawn) [Example C-52]
45 | 480 nM | 840 nM | CCOC(Cc1ccc(OCCc2ccc(OC(F)(F)F)cc2)nc1)C(=O)O [Example D-20]
46 | 220 nM | 7700 nM | CCOC(c1ccc(OCCc2nc(-c3ccccc3)oc2C)nc1)C1(C(=O)O)CCC1 (stereo not drawn) [Example C-45]
47 | 62 nM | 53 nM | Cc1oc(-c2ccc(C#N)cc2)nc1CCOc1ccc(CC2(C(=O)O)CCCO2)cc1 (stereo not drawn) [Example C-80]
48 | 1400 nM | 4600 nM | O=C(O)C1(Cc2ccc(OCCc3ccc(-c4cccc(OC(F)(F)F)c4)cc3)cc2)CCC1 [Example C-09]
49 | 66 nM | 18 nM | Cc1oc(-c2ccc(Cl)c(Cl)c2)nc1CCOc1ccc(CC2(C(=O)O)CCC2)cc1 [Example C-25]
50 | 26 nM | 15 nM | Cc1oc(-c2ccc(Cl)cc2)nc1CCOc1ccc(CC2(C(=O)O)CCC2)cc1 [Example C-27]
51 | 1600 nM | 9400 nM | O=C(O)C1(Cc2ccc(OCCc3ccc(-c4ccc5c(c4)OCC5)cc3)cc2)CCC1 [Example C-12]
52 | 390 nM | 180 nM | Cc1oc(-c2ccccc2)nc1CCCOc1cccc(-c2cccc(OC(C)(C)C(=O)O)c2)c1 [Example A-23]
53 | 6200 nM | 5100 nM | CCS(=O)(=O)Oc1ccc(CCOc2ccc(CC(OC)C(=O)O)cn2)cc1 [Example D-11]
54 | 83 nM | 22 nM | Cc1oc(-c2ccc(C(F)(F)F)c(F)c2)nc1CCOc1ccc(CC2(C(=O)O)CCC2)cc1 [Example C-24]
55 | 1700 nM | 6400 nM | CCOC(Cc1ccc(OCCc2ccc(OS(C)(=O)=O)cc2)nc1)C(=O)O [Example D-19]
56 | 360 nM | 190 nM | COC(Cc1ccc(OCCc2ccc(Oc3ccccc3)cc2)nc1)C(=O)O [Example D-13]
57 | 2100 nM | 19000 nM | COc1ccc(-c2ccc(CCOc3ccc(CC4(C(=O)O)CCC4)cc3)cc2)cn1 [Example C-10]
